Laboratory results published in ChEMBL document CHEMBL3879906 (2013).
Calls of active or inactive are those of the source. The rule behind the calls is not given here.

Tests used:
Cardiac muscle cell [1] = assay: Increase in reverse rate-dependent action potential duration at 90% repolarization in human atrial myocytes at 0.5 to 2 Hz at 50 uM by whole cell patch clamp method; type: functional, cell-based
Cardiac muscle cell [2] = assay: Increase in reverse rate-dependent action potential duration at 50% repolarization in human atrial myocytes at 0.5 to 2 Hz at 50 uM by whole cell patch clamp method; type: functional, cell-based
Cardiac muscle cell [3] = assay: Increase in reverse rate-dependent action potential duration at 75% repolarization in human atrial myocytes at 0.5 to 2 Hz at 50 uM by whole cell patch clamp method; type: functional, cell-based
Canis familiaris [4] = assay: Anti-atrial fibrillation activity in bilateral vagal stimulated anesthetized dog assessed as time duration of atrial fibrillation at 100 ms of basic cycle length at 5 mg/kg administered intraduodenally measured after 2 hrs; type: functional, Canis lupus familiaris
[5] = Effect on resting membrane potential in human atrial myocytes at 5 to 10 uM by whole cell patch clamp method; type: cell-based; settings: cardiac muscle cell
[6] = biological target: T1, A-type voltage-gated potassium channel KCND3 (Homo sapiens, UniProt Q9UK17); assay: Inhibition of Kv4.3 in human atrial myocytes assessed as decrease in transient outward potassium current amplitude at 3 to 10 uM by whole cell patch clamp method; type: cell-based
T1 sequence (Q9UK17 whole entry): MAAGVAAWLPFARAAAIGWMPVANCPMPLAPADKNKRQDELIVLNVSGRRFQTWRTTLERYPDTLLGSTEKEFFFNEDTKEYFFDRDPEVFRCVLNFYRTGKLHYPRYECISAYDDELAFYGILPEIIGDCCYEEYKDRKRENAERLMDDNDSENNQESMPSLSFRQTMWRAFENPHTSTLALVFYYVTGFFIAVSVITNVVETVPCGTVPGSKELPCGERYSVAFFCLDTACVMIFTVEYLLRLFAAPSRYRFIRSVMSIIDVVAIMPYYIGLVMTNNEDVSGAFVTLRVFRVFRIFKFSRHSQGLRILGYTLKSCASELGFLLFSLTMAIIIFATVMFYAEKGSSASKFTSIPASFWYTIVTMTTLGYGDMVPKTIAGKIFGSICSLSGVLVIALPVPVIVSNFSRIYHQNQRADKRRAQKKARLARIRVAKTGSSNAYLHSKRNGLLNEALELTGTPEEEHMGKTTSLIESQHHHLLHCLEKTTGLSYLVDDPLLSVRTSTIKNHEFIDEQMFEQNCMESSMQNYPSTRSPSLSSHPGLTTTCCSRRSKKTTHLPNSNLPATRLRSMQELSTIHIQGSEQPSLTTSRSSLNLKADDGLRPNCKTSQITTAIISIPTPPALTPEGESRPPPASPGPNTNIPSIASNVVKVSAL

Mus musculus [7] = assay: Acute toxicity in Kunming mouse assessed as abnormal activity at 0.3 g/kg, po administered every 1.5 hrs for 3 times measured for 2 weeks relative to vehicle-treated control; type: organism-based; settings: in vivo, 300 mg/kg, 336 h
Cardiac muscle cell [8] = assay: Prolongation of action potential duration in human atrial myocytes at 2 Hz at 5 to 10 uM by whole cell patch clamp method; type: functional, cell-based
Mus musculus [9] = assay: Acute toxicity in Kunming mouse assessed as mortality at 0.3 g/kg, po administered every 1.5 hrs for 3 times measured for 2 weeks relative to vehicle-treated control; type: organism-based; settings: in vivo, 300 mg/kg, 336 h
[10] = biological target: Potassium voltage-gated channel subfamily A member 5 (Homo sapiens) (UniProt P22460); assay: Inhibition of Kv1.5 in human atrial myocytes assessed as decrease in ultra rapidly activating delayed rectifier potassium current amplitude at 40 mV by whole cell patch clamp method; type: cell-based
Cardiac muscle cell [11] = assay: Increase in action potential duration at 90% repolarization in human atrial myocytes at 0.5 to 2 Hz at 10 uM by whole cell patch clamp method; type: functional, cell-based
Canis familiaris [12] = assay: Anti-atrial fibrillation activity in bilateral vagal stimulated anesthetized dog assessed as time duration of atrial fibrillation at 100 ms of basic cycle length at 10 mg/kg administered intraduodenally; type: functional, Canis lupus familiaris
[13] = biological target: Potassium voltage-gated channel subfamily A member 5 (Homo sapiens) (UniProt P22460); assay: Inhibition of Kv1.5 in human atrial myocytes assessed as decrease in ultra rapidly activating delayed rectifier potassium current amplitude at 3 uM after 8 mins by whole cell patch clamp method; type: cell-based
[14] = biological target: Potassium voltage-gated channel subfamily A member 5 (Homo sapiens) (UniProt P22460); assay: Inhibition of Kv1.5 in human atrial myocytes assessed as decrease in ultra rapidly activating delayed rectifier potassium tail and step current amplitude at 3 to 30 uM by whole cell patch clamp method; type: cell-based
Heart [15] = assay: Effect on heart rate in New Zealand white rabbit heart under hypokalemic conditions at 30 uM by electrocardiogram (reference value: 157 to 175 /min); type: ADME, tissue-based, Oryctolagus cuniculus
[16] = biological target: Voltage-gated inwardly rectifying potassium channel KCNH2 (Homo sapiens, UniProt Q12809); assay: Inhibition of human ERG expressed in HEK293 cells assessed as decrease in current amplitude at 30 uM by whole cell patch clamp method; type: cell-based; settings: hek293, 30 µM
Canis familiaris [17] = assay: Induction of QTc interval prolongation in anesthetized dog at 5 mg/kg administered intraduodenally after 1 to 4 hrs; type: organism-based, Canis lupus familiaris; settings: in vivo, other
[18] = biological target: T2, Voltage-gated potassium channel, IKs; KCNQ1(Kv7.1)/KCNE1(MinK) (Homo sapiens, UniProt P51787+P15382); assay: Inhibition of human KCNQ1/KCNE1 expressed in HEK293 cells assessed as decrease in current amplitude at +20 to +60 mV by whole cell patch clamp method; type: cell-based
[19] = biological target: T1, A-type voltage-gated potassium channel KCND3; assay: Inhibition of Kv4.3 in human atrial myocytes assessed as recovery time constant of transient outward potassium current amplitude at 10 uM by whole cell patch clamp method (reference value: 102 +/- 12 ms); type: cell-based
[20] = biological target: T2, Voltage-gated potassium channel, IKs; KCNQ1(Kv7.1)/KCNE1(MinK); assay: Inhibition of human KCNQ1/KCNE1 expressed in HEK293 cells assessed as recovery of current amplitude at 30 uM measured after compound washout by whole cell patch clamp method; type: cell-based; parameters: scale not given: the % may be the effect or the level left; settings: hek293, 30 µM
[21] = biological target: T2, Voltage-gated potassium channel, IKs; KCNQ1(Kv7.1)/KCNE1(MinK); assay: Inhibition of human KCNQ1/KCNE1 expressed in HEK293 cells assessed as decrease in current amplitude at 30 uM by whole cell patch clamp method; type: cell-based; settings: hek293, 30 µM
Cavia porcellus = species: Cavia porcellus; assay: Inhibition of acetylcholine-activated potassium channel in guinea pig atrial myocytes assessed as reversal of carbachol-induced membrane conductance at 3 uM by whole cell patch clamp method; type: cell-based
Heart [22] = assay: Effect on QTc interval in New Zealand white rabbit heart under hypokalemic conditions at 30 uM by electrocardiogram (reference value: 304.5 to 340.1 ms); type: ADME, Oryctolagus cuniculus
Cardiac muscle cell [23] = assay: Increase in action potential duration at 75% repolarization in human atrial myocytes at 0.5 to 2 Hz at 10 uM by whole cell patch clamp method; type: functional, cell-based
Canis familiaris [24] = assay: Anti-atrial fibrillation activity in anesthetized dog assessed as prolongation of effective refractory time period of left atrium at 200 to 250 ms of basic cycle length at 5 mg/kg administered intraduodenally measured after 1 to 4 hrs relative to vehicle-treated control; type: functional, Canis lupus familiaris
Cardiac muscle cell [25] = assay: Increase in action potential duration at 50% repolarization in human atrial myocytes at 0.5 to 2 Hz at 10 uM by whole cell patch clamp method; type: functional, cell-based
[26] = Effect on amplitude of action potential in human atrial myocytes at 5 to 10 uM by whole cell patch clamp method; type: cell-based; settings: cardiac muscle cell

Potassium voltage-gated channel subfamily A member 5 (Homo sapiens), sequence (P22460 whole entry): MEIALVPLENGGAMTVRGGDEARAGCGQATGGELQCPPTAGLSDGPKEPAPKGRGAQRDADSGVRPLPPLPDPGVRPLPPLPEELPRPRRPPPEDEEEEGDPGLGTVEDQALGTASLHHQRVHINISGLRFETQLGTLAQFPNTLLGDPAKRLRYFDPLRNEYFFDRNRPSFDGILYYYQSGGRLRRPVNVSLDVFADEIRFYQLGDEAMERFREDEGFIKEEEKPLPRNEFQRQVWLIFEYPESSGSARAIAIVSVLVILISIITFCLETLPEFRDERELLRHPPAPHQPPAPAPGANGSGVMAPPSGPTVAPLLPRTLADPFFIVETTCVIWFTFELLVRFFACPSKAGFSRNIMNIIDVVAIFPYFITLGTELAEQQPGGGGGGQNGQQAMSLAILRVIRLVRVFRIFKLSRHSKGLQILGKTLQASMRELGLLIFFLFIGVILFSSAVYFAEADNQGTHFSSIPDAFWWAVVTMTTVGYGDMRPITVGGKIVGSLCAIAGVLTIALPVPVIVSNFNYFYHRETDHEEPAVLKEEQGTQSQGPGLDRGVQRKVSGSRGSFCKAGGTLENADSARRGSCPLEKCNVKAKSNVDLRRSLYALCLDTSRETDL
T2 sequence (P51787 whole entry): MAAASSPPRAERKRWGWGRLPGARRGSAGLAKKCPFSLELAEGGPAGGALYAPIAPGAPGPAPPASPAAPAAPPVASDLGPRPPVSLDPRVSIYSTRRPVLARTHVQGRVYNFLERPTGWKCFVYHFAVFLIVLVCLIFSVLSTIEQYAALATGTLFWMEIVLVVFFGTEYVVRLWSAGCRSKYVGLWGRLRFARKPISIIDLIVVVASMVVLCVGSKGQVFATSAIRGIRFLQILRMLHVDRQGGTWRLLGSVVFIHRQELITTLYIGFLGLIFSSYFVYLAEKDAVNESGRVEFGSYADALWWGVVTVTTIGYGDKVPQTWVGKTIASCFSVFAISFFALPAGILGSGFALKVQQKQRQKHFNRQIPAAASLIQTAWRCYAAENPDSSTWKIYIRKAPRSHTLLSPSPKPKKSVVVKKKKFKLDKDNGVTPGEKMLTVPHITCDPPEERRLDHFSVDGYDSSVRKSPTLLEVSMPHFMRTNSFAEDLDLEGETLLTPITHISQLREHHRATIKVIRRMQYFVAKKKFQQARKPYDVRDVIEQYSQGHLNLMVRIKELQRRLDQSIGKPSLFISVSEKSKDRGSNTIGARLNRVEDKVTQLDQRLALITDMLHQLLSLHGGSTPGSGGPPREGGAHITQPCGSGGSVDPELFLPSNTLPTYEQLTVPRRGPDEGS
Voltage-gated inwardly rectifying potassium channel KCNH2, sequence (Q12809 whole entry): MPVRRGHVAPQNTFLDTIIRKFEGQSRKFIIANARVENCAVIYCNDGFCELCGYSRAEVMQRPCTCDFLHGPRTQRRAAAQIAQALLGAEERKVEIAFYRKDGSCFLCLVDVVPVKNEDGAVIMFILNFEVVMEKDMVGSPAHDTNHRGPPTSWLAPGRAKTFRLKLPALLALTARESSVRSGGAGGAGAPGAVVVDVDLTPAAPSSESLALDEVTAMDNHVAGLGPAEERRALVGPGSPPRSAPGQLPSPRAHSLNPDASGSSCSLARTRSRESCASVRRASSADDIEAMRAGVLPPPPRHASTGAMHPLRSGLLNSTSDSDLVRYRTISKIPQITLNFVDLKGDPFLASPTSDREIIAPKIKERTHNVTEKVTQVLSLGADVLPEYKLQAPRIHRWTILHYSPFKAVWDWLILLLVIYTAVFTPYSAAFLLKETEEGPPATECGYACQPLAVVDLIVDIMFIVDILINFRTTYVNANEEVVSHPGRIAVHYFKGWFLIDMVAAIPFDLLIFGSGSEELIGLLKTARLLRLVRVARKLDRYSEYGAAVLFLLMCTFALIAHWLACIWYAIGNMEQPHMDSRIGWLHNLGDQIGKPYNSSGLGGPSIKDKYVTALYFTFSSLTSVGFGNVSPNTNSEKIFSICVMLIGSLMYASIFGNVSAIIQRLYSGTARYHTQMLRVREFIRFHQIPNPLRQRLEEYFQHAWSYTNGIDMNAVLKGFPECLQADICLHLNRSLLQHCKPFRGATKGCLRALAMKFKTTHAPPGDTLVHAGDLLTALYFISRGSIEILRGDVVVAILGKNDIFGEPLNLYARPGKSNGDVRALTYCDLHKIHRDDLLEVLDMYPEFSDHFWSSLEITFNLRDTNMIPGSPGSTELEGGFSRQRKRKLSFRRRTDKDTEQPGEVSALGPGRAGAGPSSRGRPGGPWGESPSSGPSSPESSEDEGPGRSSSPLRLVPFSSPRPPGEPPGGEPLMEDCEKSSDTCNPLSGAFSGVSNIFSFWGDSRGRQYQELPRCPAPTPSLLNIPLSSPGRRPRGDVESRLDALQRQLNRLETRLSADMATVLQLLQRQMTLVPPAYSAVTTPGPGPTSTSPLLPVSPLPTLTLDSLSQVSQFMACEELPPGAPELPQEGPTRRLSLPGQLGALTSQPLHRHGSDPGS

Nc1ccncc1
Activity (Cardiac muscle cell [1]): Active
Activity (Cardiac muscle cell [2]): Active
Activity (Cardiac muscle cell [3]): Active

COc1ccc(-c2cc(=O)c3c(O)cc(O)cc3o2)cc1 [ACACETIN]
Time (Canis familiaris [4]): 5.31 to 6.12 min
Activity [5]: Non-Toxic
inhibition (INH) [6]: Active
Activity (Mus musculus [7]): Non-Toxic
Activity (Cardiac muscle cell [8]): Active
Activity (Mus musculus [9]): Non-Toxic
inhibition [10]: Dose-dependent effect
Activity (Cardiac muscle cell [11]): Active
Time (Canis familiaris [12]): 4.3 to 7.11 min
inhibition [13]: Active
inhibition [14]: Active
Activity (Heart [15]): 156 bpm
inhibition (INH) [16]: Active
Activity (Canis familiaris [17]): Non-Toxic
inhibition (INH) [18]: Dose-dependent effect
Time [19]: 136 ms
Activity [20]: 83%
inhibition (INH) [21]: Active
inhibition (Cavia porcellus): Active
Time (Heart [22]): 308.7 ms
Activity (Cardiac muscle cell [23]): Active
Activity (Canis familiaris [24]): 10 - 25%
Activity (Cardiac muscle cell [25]): Active
Activity [26]: Non-Toxic

CC(C)NCC(O)c1ccc(NS(C)(=O)=O)cc1 (centres undefined) [SOTALOL]
Time (Canis familiaris [4]): 8.5 min
Activity (Canis familiaris [17]): Toxic
